# Several values for one entry are separate records, joined by “and”; a condition that tells them apart may be missing. Equal values may be shown once. Entries after “also recorded” stand apart in the source; their conditions may differ.
# Experiments:
# [1] = CELEBREX Package Insert table; cited from earlier work
# [2] = cited from earlier work
# [3] = Applicant's meta analysis of reported edema rates in osteoarthritic populations by celecoxib dose
# [4] = in vivo
# [5] = Combined plots and meta analysis of published celecoxib pharmacokinetic data; format: in vivo, human
# Excerpt: In other words, the most efficacious celecoxib dosage is not well defined among the elderly. The problem may be more widespread than expected as elderly here is defined as patients greater than >40 or >50, not the usually definition of elderly (age greater >65).
smiles,measurement,setting,value
Cc1ccc(-c2cc(C(F)(F)F)nn2-c2ccc(S(N)(=O)=O)cc2)cc1 [celecoxib],patients treated who develop edema,[1],2.1%
same,incidence of edema,[2]; two trials with much higher incidence,23% and 38%
same,incidence of edema at any site,[2]; usual incidence in clinical trials of celecoxib,about 3%
same,upper limit and average edema event rate,[3]; 400 mg/day vs 100 or 200 mg/day,more than twice as high
same,edema event rates,[3]; 100 vs 200 mg/day dose,remarkably similar edema event rates
same,% Edema,[4]; human,20%
same,effect of anti-hypertensive class on incidence of edema in patients taking CELEBREX,[4],steady increase in incidence of edema
same,incidence of edema in patients taking CELEBREX with or without diuretic,[4],steady increase in incidence of edema
same,incidence of edema with vs without CELEBREX by arthritis group,[4],increased when patients was taken CELEBREX® for all groups except for RA and no Arthritis free patients
same,variability of pharmacokinetics; 100 mg vs 200 mg dose PK results,"[5]; FIG. 2, listed as CELEBREX®",unexpectedly high; also recorded: substantial overlap
same,"drug exposure as defined by AUC, elderly vs younger patients","[5]; age-based subgroups, FIG. 3",highly significant differences
O=C(O)Cc1ccccc1Nc1c(Cl)cccc1Cl [diclofenac],patients treated who develop edema,[1],1.0%
CC(C)Cc1ccc(C(C)C(=O)O)cc1 (centres unmarked) [ibuprofen],patients treated who develop edema,[1],3.5%
COc1ccc2cc([C@H](C)C(=O)O)ccc2c1 [naproxen],patients treated who develop edema,[1],2.1%

# From patent publication US20170035787A1, “Fixed Dose Combination for Pain Relief Without Edema” (Autotelic LLC, priority 2014, published 2017)
